The record followed here is paper PMC5662925, “Selective Targeting of Bromodomains of the Bromodomain-PHD Fingers Family Impairs Osteoclast Differentiation” (ACS Chemical Biology, 2017).

One data set addresses BRD4(1) (Homo sapiens, UniProt O60885). Nature of the data set: Temperature shift assay (ΔTm). The data set is classed as binding. The conditions noted are these: 10 µM compound.
Another data set deals with T1, BRPF2 (Homo sapiens, UniProt O95696).
T1 construct: All recombinant bromodomains were expressed as described in Filippakopoulos et al; made in house
T1 sequence (O95696 562-666 limits assumed): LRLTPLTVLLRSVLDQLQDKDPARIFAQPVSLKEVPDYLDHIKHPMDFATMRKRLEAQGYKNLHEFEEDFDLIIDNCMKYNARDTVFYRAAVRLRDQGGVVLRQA
Description: Isothermal titration calorimetry (ITC). The conditions noted are these: ITC data. It counts as binding. On the technique in general: ITC needs no label: the signal is the heat of the interaction.

For data set [1], the system named is primary murine bone marrow cells differentiated with RANKL. Nature of the data set: Murine osteoclast differentiation, TRAP stain. The data set is classed as cell-based, mouse. The text has this: Epigenetic mechanisms play an important role in patterning and differentiation processes, and BRPF and its associated HATs have been particularly associated with differentiation of hematopoietic cells. Given our interest in bone biology, and the hematopoietic origin of the osteoclast, we investigated the potential role of the targeted bromodomains in osteoclastogenesis in mouse and human cells. Bone marrow mononuclear cells were isolated from wild-type mice, cultivated for 5 days in the presence of CSF-1, and replated in the presence of RANKL for differentiation into osteoclasts,[28] either with DMSO as a control or with varying doses of the BRPF inhibitors. […] To understand the molecular basis for this observation, we investigated the expression of several osteoclast marker genes using qPCR. […] To further investigate other osteoclast-specific effects of the BRPF inhibitors on gene transcription, we profiled genome-wide expression with Illumina MouseWG-6 v2.0 Expression BeadChips at different time points.

Data set [2] concerns osteoclast marker genes (TRAP, CATK, CA2, NFATC1, OC-STAMP) in murine BMCs. Nature of the data set: qPCR of osteoclast marker genes in murine BMCs. The data set is classed as cell-based, mouse. The conditions noted are these: 10 ng/mL RANKL, 1 μM and 2 μM, 0-3 days. (In qPCR the cycle at which signal appears reflects the starting amount.)
The subject of data set [3] is NFATC1 protein level in murine BMCs. Description: Western blot of NFATC1 in murine BMCs. It counts as cell-based, mouse. The conditions noted are these: 10 ng/mL RANKL, 1 μM and 2 μM. The text has this: Figure 5 BRPF1B binding partners and effect of BRPF bromodomain inhibition on gene transcription during mouse osteoclastogenesis. […] The color of the circle represents the absolute spectral counts observed for the prey proteins. The circle size indicates the quantitative enrichment of a prey across all baits tested while the estimated FDR for the interaction is shown as the color of the circle edge. (B) Inhibition of murine osteoclast differentiation by panBRPF bromodomain inhibition. […] Bar scale indicates 200 μm. […] Data were normalized to day 0 of RANKL treatment. […] LaminB1 was used as a loading control.
Murine osteoclast-like cells were PBS washed, homogenized and lysed in RIPA buffer (50 mM Tris-HCl, pH 7.4; 150 mM NaCl; 1% NP-40; 0.5% Na-deoxycholate; 0.1% SDS; 2 mM EDTA; 10 mM NaF) containing protease inhibitors (Pierce, according to manufacturer’s specifications) with a 1 mL syringe and a 23-gauge needle. After centrifugation at 15 000 rpm at 4 °C for 10 min, supernatants were frozen at −80 °C. Protein concentrations were assayed using a Pierce BCA Kit, and 30 μg of protein per lane was subjected on 10% SDS gel. […] Absorbance was measured at 440 nm.

The test system of data set [4] is murine monocytic RAW246.7 cells. Description: Proliferation / cell count of RAW cells. The conditions noted are these: 72 h treatment, 10 µM, n = 4, t-test p = 0.73. The data set is classed as cell-based, mouse. As for the experimental part: Supplementary Figure 4: Inhibition of murine osteoclast differentiation. A) TRAP stain of primary murine bone marrow cells (BMCs) differentiated into osteoclasts for 3 days with RANKL plus either the treatment with DMSO or NIL57 at 1 µM. Bar scale indicates 200 µm. […]
treated bone marrow cells after 1, 2 and 3 days of differentiation as compared to bone marrow cells before RANKL treatment start. C.) Count of RAW cells after 72 h treatment […]
content of primary mouse BMCs treated for 0, 1, 2 and 3 days with either without or with 1

For data set [5], the system named is human osteoclast-like cells on bone mineral substrate. Nature of the data set: Bone resorption, Osteosurface assay (hydroxyapatite). The data set is classed as cell-based. The text has this:
Dentine pits were imaged with confocal microscopy.

In data set [6] the test system is MMP9 secretion by human RANKL-induced osteoclasts. Description: MMP9 ELISA of human osteoclast supernatant. The data set is classed as cell-based. The conditions noted are these: 1.25 μM, 7 days or 11 days. Background: An ELISA detects its analyte on a solid surface through an enzyme-linked reagent.
Data set [7] deals with RANKL-induced expression of Ppap2a and SphK1. Nature of the data set: Microarray genome-wide expression in murine BMCs. The data set is classed as cell-based, mouse. The conditions noted are these: 2 μM. As to the method:
(A) Heat map of the top 25 significant differentially expressed genes between DMSO and OF-1-treated BMCs based on sorted average p-value for the time points 48 and 72 h. Red indicates higher; blue indicates lower expression. See also, Supporting Information Figures 3 and 4.
Murine bone marrow stem cells were differentiated into osteoclast-like cells as described above. Cells were PBS-washed and lysed in RLT-Buffer (including 2-Mercaptoethanol; Qiagen, UK), and RNA was isolated via RNeasy Plus Mini Kit (Quiagen, UK). After confirmation of RNA quality (RIN = 2 ± 0.1), cDNA synthesis of approximately 1000 ng of RNA with a High Capacity cDNA Reverse Transcription Kit (Applied Biosystems, UK) was carried out. A total of 500 ng/μL cDNA was subjected to MouseWG-6 v2.0 Expression BeadChips (Illumina) at the Department of Pathology, University of Cambridge. Microarray data are available in the ArrayExpress database (www.ebi.ac.uk/arrayexpress) under accession number E-MTAB-4155. Gene expression data underwent log2 transformation and quantile normalization. Genes were filtered based on their variation across the experiments, i.e., excluding genes with a standard deviation of expression lower than 0.1. For genes with multiple probes, only the highest variable probe was selected for further analysis. […]

Data set [8] deals with human osteoclast-like cells on dentine slices. Nature of the data set: Bone resorption on dentine slices. The conditions noted are these: 1 μM.
For data set [9], the system named is human primary monocytes (PBMCs) differentiated with RANKL. Nature of the data set: Human osteoclast differentiation (TRAP-positive multinucleated cells).

Each structure is given as a SMILES string.

For orientation: ΔTm means the change in melting temperature against a reference sample. As to `COc1cc2c(cc1NS(=O)(=O)c1ccc(Br)cc1C)n(C)c(=O)n2C` [OF-1], on BRD4(1), the ΔTm at 10 µM was 2.1 °C. For the same molecule, the “weaker potency for BRPF2 (vs BRPF1B)” value at BRPF2 is recorded as 5 fold. In [1], the “number of multinucleated TRAP positive cells” value is reported as “significant reductions”. For the same molecule, the “expression of osteoclast marker genes (qPCR)” value in data set [2] is “significant reductions”. Besides, the NFATC1 protein level entry in data set [3] is recorded as “strong down-regulation”. In data set [4], the “Count of RAW cells vs DMSO” value was “no significant difference”. Also, the “pit formation on hydroxyapatite (Osteosurface assay)” value in data set [5] is “significant reduction”. Also, the MMP9 secretion result in data set [6] is recorded as “significant reductions”. Further, in [7], the “RANKL-induced expression of Ppap2a and SphK1” value is given as “significantly down-regulated”. For the same molecule, in data set [8], the resorption of dentine result is “complete block”. The “fusion into multinucleated osteoclast-like cells” value in [9] is “completely suppress”.
Take `COc1ccccc1C(=O)Nc1cc2c(cc1N1CCCC1)n(C)c(=O)n2C` [PFI-4]: the MMP9 secretion entry in [6] is recorded as “significant reductions”.
